Consider 1 compound from patent US12233060B2, “Inhibitors of Ataxia-Telangiectasia Mutated and Rad3-related protein kinase (ATR) for use in methods of treating cancer” (THE INSTITUTE OF CANCER RESEARCH: ROYAL CANCER HOSPITAL, priority 2016, dated 2025).

The experiment deals with SS tumour cell lines (HS-SY-II, ASKA, YAMOTO, CME1, SYO1). Nature of the experiment: Five-day cell viability (CellTiter-Glo) in synovial sarcoma tumour cell lines. It counts as cell-based, human. The text has this:
FIG. 8. ATR genetic dependency synovial sarcoma tumour cells—part 1. A. ATR siRNA Z scores from the siRNA screens described in FIG. 7, classified according to the cancer histology of tumour cell lines. B. Dose-response survival curves illustrating sensitivity of SS tumour cell lines to the ATR small molecule inhibitor (ATRi) VX970, compared to ATRi resistant HCT116 cells. Cells were exposed to drugs for five days and cell viability estimated using CellTiter-Glo. For each SS tumour cell line, dose response ANOVA p<0.0001 vs. HCT116. C. Dose-response survival curves illustrating sensitivity of SS tumour cell lines to VX970, compared to ATRi resistant ARID1A wild type HCT116 cells (HCT116 ARID1A^+/+) and ARID1A defective HCT116 cells (HCT116 ARID1A^−/−). Cells were exposed to drugs for five days and cell viability estimated using CellTiter-Glo. For each SS tumour cell line and HCT116 ARID1A^−/−, dose response ANOVA p<0.0001 vs. HCT116 ARID1A^+/+. D. VX970 area under the curve (AUC) values in tumour cell lines. ARID1A defective cells indicated as “ARID1A^−/−”, Ewings sarcoma tumour cell lines shown as “EWS”. E. Anti-tumour response in mice bearing established synovial sarcoma PDX, SA13412, to treatment with VX970. Median tumour volumes after the initiation of VX970 treatment are shown. Error bars represent standard error of the mean (SEM). F. Kaplan-Meier survival plot of data from (E). log rank Mantel p=0.026. G. Western blot illustrating expression of synovial sarcoma fusion proteins in HCT116 cells. A SS18-SSX1 variant with the final eight residues of SSX1 deleted (Δ71-78) is shown as d71-78. H. Bar chart illustrating induction of AXIN2 mRNA after expression of synovial sarcoma fusion proteins in HCT116 cells. I-K. Dose-response survival curves illustrating that expression of synovial sarcoma fusion proteins in HCT116 cells causes ATRi sensitivity.
FIG. 9. ATR genetic dependency synovial sarcoma tumour cells—part 2. […] Cells were transfected with ATR siRNAs and cell viability estimated five days later by the use of Cell Titre Glo. Bar chart showing surviving fractions are shown left and middle. Western blot illustrating ATR protein silencing is shown right. Z scores from the siRNA screens described in FIG. 7, classified according to the cancer histology of tumour cell lines. B. Dose-response survival curves illustrating sensitivity of SS tumour cell lines to the ATR small molecule inhibitor (ATRi) VX970, compared to ATRi resistant HCT116 cells and non-tumour cells (HFF1, MCF10A). […]
Having confirmed the sensitivity of SS tumour cell lines to siRNA in validation experiments (FIG. 9A), we assessed the sensitivity of the five SS tumour cell lines to the clinical ATR inhibitor (ATRi), VX970 (Vertex Pharmaceuticals). […]

For `CNCc1ccc(-c2cc(-c3nc(-c4ccc(S(=O)(=O)C(C)C)cc4)cnc3N)on2)cc1` [VX-970, 5-[4-(Isopropylsulfonyl)phenyl]-3-(3-{4-[(methylamino)methyl]phenyl}-1,2-oxazol-5-yl)-2-pyrazinamine], where the note is “AUC and SF50 comparison”, the “sensitivity of SS tumour cell lines vs Ewing's sarcoma and ARID1A defective tumour cells” value was “VX970 sensitivity comparable”. Besides, the IC50 (Homo sapiens, 120 h, each of five SS tumour cell lines, five days exposure, read-out: SF50 (concentration required to cause 50% reduction in cell survival)) is ~100 nM. Moreover, the “sensitivity of SS tumour cell lines vs ARID1A defective HCT116 cells” value (five days) is reported as “as sensitive to VX970 as HCT116 cells”. For the same compound, the “sensitivity of SS tumour cell lines vs ATRi resistant HCT116 cells” value (five days, ANOVA p<0.0001) is “profoundly sensitive to VX970”.
